Data taken from ChEMBL document CHEMBL5614394, “Novel pleuromutilin derivatives conjugated with phenyl-sulfide and boron-containing moieties as potent antibacterial agents against antibiotic-resistant bacteria” (Eur J Med Chem, 2024).
In brackets after ≈: the same amount, converted by molar mass. Activity calls are given as the source filed them. The rule behind the calls is not given here.

System: HUVEC
Assay: Cytotoxicity against HUVEC cells incubated for 48 hrs by MTT assay
Type: toxicity, cell-based
Details: human

Structure (SMILES)	Activity
C=C[C@]1(C)C[C@@H](OC(=O)CSc2cccc(NC(=O)c3ccc4c(c3)B(O)OC4)c2)[C@]2(C)[C@H](C)CC[C@]3(CCC(=O)[C@H]32)[C@@H](C)[C@@H]1O	Non-Toxic

System: HEK293
Assay: Cytotoxicity against HEK293 cells incubated for 48 hrs by MTT assay
Type: toxicity, cell-based
Details: human, hek293, 48 h

Structure (SMILES)	Activity
C=C[C@]1(C)C[C@@H](OC(=O)CSc2cccc(NC(=O)c3ccc4c(c3)B(O)OC4)c2)[C@]2(C)[C@H](C)CC[C@]3(CCC(=O)[C@H]32)[C@@H](C)[C@@H]1O	Non-Toxic

System: Staphylococcus epidermidis
Assay: Antibacterial activity against Staphylococcus epidermidis ATCC 12228 assessed as inhibition of visible growth of bacteria incubated for 24 hrs by CLSI protocol based broth-dilution method
Type: functional
Details: not given

Structure (SMILES)	MIC [µg/mL]
C=C[C@]1(C)C[C@@H](OC(=O)CSc2cccc(NC(=O)c3ccc4c(c3)B(O)OC4)c2)[C@]2(C)[C@H](C)CC[C@]3(CCC(=O)[C@H]32)[C@@H](C)[C@@H]1O	0.016 (≈ 0.0248 µM)

System: not listed separately
Assay: Stability in rat liver microsomes assessed as drug metabolism at 1 uM measured within 1 hrs in presence of NADPH by LC-MS analysis
Type: ADME, Microsome
Details: read-out: Drug metabolism

Structure (SMILES)	metabolised at 1 h, 1 µM [%]
C=C[C@]1(C)C[C@@H](OC(=O)CSc2cccc(NC(=O)c3ccc4c(c3)B(O)OC4)c2)[C@]2(C)[C@H](C)CC[C@]3(CCC(=O)[C@H]32)[C@@H](C)[C@@H]1O	52.7

System: Staphylococcus aureus
Assay: Antibacterial activity against methicillin resistant Staphylococcus aureus USA 300 infected in peritonitis sepsis CD-1 mouse model assessed as mouse survival rate at 40 mg/kg, iv administered as double dose with 6 hrs interval and measured after 7 days relative to control
Type: functional
Details: USA 300, 168 h, time 7 day

Structure (SMILES)	survival at 40 mg/kg [%]
C=C[C@]1(C)C[C@@H](OC(=O)CSc2cccc(NC(=O)c3ccc4c(c3)B(O)OC4)c2)[C@]2(C)[C@H](C)CC[C@]3(CCC(=O)[C@H]32)[C@@H](C)[C@@H]1O	50

System: Staphylococcus simulans
Assay: Antibacterial activity against pleuromutilin-resistant Staphylococcus simulans isolate 55-1 harboring cfr+ genotype assessed as inhibition of visible growth of bacteria incubated for 24 hrs by CLSI protocol based broth-dilution method
Type: functional
Details: not given

Structure (SMILES)	MIC [µg/mL]
C=C[C@]1(C)C[C@@H](OC(=O)CSc2cccc(NC(=O)c3ccc4c(c3)B(O)OC4)c2)[C@]2(C)[C@H](C)CC[C@]3(CCC(=O)[C@H]32)[C@@H](C)[C@@H]1O	1 (≈ 1.55 µM)

System: Staphylococcus aureus
Assay: Antibacterial activity against methicilin-resistant Staphylococcus aureus isolate 15-2 assessed as inhibition of visible growth of bacteria incubated for 24 hrs by CLSI protocol based broth-dilution method
Type: functional
Details: not given

Structure (SMILES)	MIC [µg/mL]
C=C[C@]1(C)C[C@@H](OC(=O)CSc2cccc(NC(=O)c3ccc4c(c3)B(O)OC4)c2)[C@]2(C)[C@H](C)CC[C@]3(CCC(=O)[C@H]32)[C@@H](C)[C@@H]1O	≤ 0.03

System: Staphylococcus aureus
Assay: Antibacterial activity against methicillin-resistant Staphylococcus aureus USA 300 assessed as inhibition of bacterial growth at 1 times of MIC measured upto 24 hrs by time-kill kinetics assay
Type: functional, organism-based
Details: not given

Structure (SMILES)	Activity
C=C[C@]1(C)C[C@@H](OC(=O)CSc2cccc(NC(=O)c3ccc4c(c3)B(O)OC4)c2)[C@]2(C)[C@H](C)CC[C@]3(CCC(=O)[C@H]32)[C@@H](C)[C@@H]1O	Active

System: Acinetobacter baumannii
Assay: Antibacterial activity against Acinetobacter baumannii ATCC 19606 assessed as inhibition of visible growth of bacteria incubated for 24 hrs by CLSI protocol based broth-dilution method
Type: functional
Details: not given

Structure (SMILES)	MIC [µg/mL]
C=C[C@]1(C)C[C@@H](OC(=O)CSc2cccc(NC(=O)c3ccc4c(c3)B(O)OC4)c2)[C@]2(C)[C@H](C)CC[C@]3(CCC(=O)[C@H]32)[C@@H](C)[C@@H]1O	> 64

System: Enterococcus faecalis
Assay: Antibacterial activity against Enterococcus faecalis HB 24-4 assessed as inhibition of visible growth of bacteria incubated for 24 hrs by CLSI protocol based broth-dilution method
Type: functional
Details: not given

Structure (SMILES)	MIC [µg/mL]
C=C[C@]1(C)C[C@@H](OC(=O)CSc2cccc(NC(=O)c3ccc4c(c3)B(O)OC4)c2)[C@]2(C)[C@H](C)CC[C@]3(CCC(=O)[C@H]32)[C@@H](C)[C@@H]1O	0.25 (≈ 0.387 µM)

System: Streptococcus pneumoniae
Assay: Antibacterial activity against penicillin resistant Streptococcus pneumoniae isolate 20-3 assessed as inhibition of visible growth of bacteria incubated for 24 hrs by CLSI protocol based broth-dilution method
Type: functional
Details: not given

Structure (SMILES)	MIC [µg/mL]
C=C[C@]1(C)C[C@@H](OC(=O)CSc2cccc(NC(=O)c3ccc4c(c3)B(O)OC4)c2)[C@]2(C)[C@H](C)CC[C@]3(CCC(=O)[C@H]32)[C@@H](C)[C@@H]1O	≤ 0.03

System: Staphylococcus aureus
Assay: Antibacterial activity against methicillin-resistant Staphylococcus aureus USA 300 assessed as number of colonies with prevalence of spontaneous mutation at 4 times of MIC incubated for 48 hrs by agar dilution assay
Type: functional
Details: not given

Structure (SMILES)	Activity
C=C[C@]1(C)C[C@@H](OC(=O)CSc2cccc(NC(=O)c3ccc4c(c3)B(O)OC4)c2)[C@]2(C)[C@H](C)CC[C@]3(CCC(=O)[C@H]32)[C@@H](C)[C@@H]1O	<4.7 10^-11No_unit

System: Staphylococcus epidermidis
Assay: Antibacterial activity against methicillin-sensitive Staphylococcus epidermidis isolate 20-15 assessed as inhibition of visible growth of bacteria incubated for 24 hrs by CLSI protocol based broth-dilution method
Type: functional
Details: not given

Structure (SMILES)	MIC [µg/mL]
C=C[C@]1(C)C[C@@H](OC(=O)CSc2cccc(NC(=O)c3ccc4c(c3)B(O)OC4)c2)[C@]2(C)[C@H](C)CC[C@]3(CCC(=O)[C@H]32)[C@@H](C)[C@@H]1O	≤ 0.03

System: Staphylococcus aureus
Assay: Antibacterial activity against Staphylococcus aureus ATCC 29213 assessed as inhibition of visible growth of bacteria incubated for 24 hrs by CLSI protocol based broth-dilution method
Type: functional
Details: not given

Structure (SMILES)	MIC [µg/mL]
C=C[C@]1(C)C[C@@H](OC(=O)CSc2cccc(NC(=O)c3ccc4c(c3)B(O)OC4)c2)[C@]2(C)[C@H](C)CC[C@]3(CCC(=O)[C@H]32)[C@@H](C)[C@@H]1O	≤ 0.016

System: not listed separately
Assay: Stability in mouse liver microsomes assessed as drug metabolism at 1 uM measured within 1 hrs in presence of NADPH by LC-MS analysis
Type: ADME, Microsome
Details: read-out: Drug metabolism

Structure (SMILES)	metabolised at 1 h, 1 µM [%]
C=C[C@]1(C)C[C@@H](OC(=O)CSc2cccc(NC(=O)c3ccc4c(c3)B(O)OC4)c2)[C@]2(C)[C@H](C)CC[C@]3(CCC(=O)[C@H]32)[C@@H](C)[C@@H]1O	67.2

System: Staphylococcus aureus
Assay: Bactericidal activity against methicillin-resistant Staphylococcus aureus USA 300 assessed as inhibition of bacterial growth at 8 times of MIC by time kill kinetics assay
Type: functional, organism-based
Details: time <= 24.0 hrs, TDE = time-dependent effect

Structure (SMILES)	Activity
C=C[C@]1(C)C[C@@H](OC(=O)CSc2cccc(NC(=O)c3ccc4c(c3)B(O)OC4)c2)[C@]2(C)[C@H](C)CC[C@]3(CCC(=O)[C@H]32)[C@@H](C)[C@@H]1O	Tde

System: Streptococcus pneumoniae
Assay: Antibacterial activity against penicillin resistant Streptococcus pneumoniae isolate 20-4 assessed as inhibition of visible growth of bacteria incubated for 24 hrs by CLSI protocol based broth-dilution method
Type: functional
Details: not given

Structure (SMILES)	MIC [µg/mL]
C=C[C@]1(C)C[C@@H](OC(=O)CSc2cccc(NC(=O)c3ccc4c(c3)B(O)OC4)c2)[C@]2(C)[C@H](C)CC[C@]3(CCC(=O)[C@H]32)[C@@H](C)[C@@H]1O	0.06 (≈ 0.0929 µM)
